# Residues, ends and D or L forms follow the SMILES beside them.
# Assays:
# [1] = system: Acinetobacter baumanii c.i.; type: cell-based, Acinetobacter baumannii; conditions: 18 h
# From the text: (§1) E. coli ML35p, Listeria monocytogenes EGD, methicillin-resistant Staphylococcus aureus (MRSA) ATCC 33591 were kindly provided by Prof. Robert Lehrer (University of California, Los Angeles, CA, USA); E. coli ATCC 25922, E. coli M15, Pseudomonas aeruginosa ATCC 27853, S. aureus ATCC 25923 were provided by Dr. Elena Ermolenko (Institute of Experimental Medicine, St-Petersburg, Russia); drug-resistant clinical isolates were provided by Prof. Gennadiy Afinogenov (Saint Petersburg State University, Russia); S. aureus 710A has been described previously. The following clinical isolates of bacteria were used: P.s aeruginosa resistant to aztreonam, ceftazidime, cefotaxime (obtained from the urine of a patient with cystitis), Acinetobacter baumannii resistant to meropenem (from an infected wound); Staphylococcus intermedius (from an infected wound caused by a dog bite) resistant to ciprofloxacin, cefuroxime, clindamycin, erythromycin, rifampin, gentamicin, benzylpenicillin, oxacillin.
# (§2) This assay was applied to determine the MIC, according to the guidelines of the Clinical and Laboratory Standards Institute, using Mueller Hinton (MH) Broth. We prepared 2x stocks of peptides and serially diluted them in sterile PBS instead of Mueller Hinton Broth, so that the treatment of the bacteria with the peptides was carried out in a medium containing 50% of MH and 50% of PBS, as described. The overnight cultures of each strain were transferred to fresh MH media and further incubated to obtain a mid-logarithmic-growth-phase culture of bacteria. The absorbance of each bacterial suspension was measured at 620 nm, and bacteria were then diluted to approximately 2 × 10^5 CFU/mL. Then, 50 µL of the suspensions were mixed with 50 µL of the peptide dilutions in the wells of a microtiter plate (pre-treated for 1 h at 37 °C with 0.2% bovine serum albumin (BSA) in water, sterilized by filtration, to diminish the non-specific binding of the peptides to the plastic surfaces).
# [2] = system: E. coli ATCC 25922; type: cell-based, Escherichia coli; conditions: ATCC 25922, 18 h
# From the text: as §1, §2
# [3] = system: E. coli M15; type: cell-based, Escherichia coli; conditions: M15, 18 h
# From the text: as §1, §2
# [4] = system: Staphylococcus intermidius; type: cell-based, Staphylococcus intermedius; conditions: 18 h
# From the text: as §1, §2
# [5] = system: Pseudomonas aeruginosa ATCC 27853; type: cell-based; conditions: ATCC 27853, 18 h
# From the text: as §1, §2
# [6] = system: Listeria monocytogenes EGD; type: cell-based; conditions: 18 h
# From the text: as §1, §2
# [7] = system: Staphylococcus aureus 710A; type: cell-based; conditions: 18 h
# From the text: as §1, §2
# [8] = system: Escherichia coli ML35p; type: cell-based; conditions: broth microdilution, 50% Mueller Hinton broth / 50% PBS, 18 h at 37 °C, median of 3–5 experiments in triplicates
# From the text: as §1, §2
# [9] = system: S. aureus ATCC 25923; type: cell-based, Staphylococcus aureus; conditions: ATCC 25923, 18 h
# From the text: as §1, §2
# [10] = system: MRSA ATCC 33591; type: cell-based, Staphylococcus aureus; conditions: ATCC 33591, 18 h
# From the text: as §1, §2
# [11] = system: S. aureus c.i.; type: cell-based, Staphylococcus aureus; conditions: 18 h
# From the text: as §1, §2
# [12] = system: human erythroleukemia K-562 cells; type: cell-based; conditions: 24 h
# Protocol: The standard MTT ((3-(4,5-Dimethylthiazol-2-yl)-2,5-diphenyltetrazolium bromide) test was used for the examination of the cytotoxic activity of AMPs towards human erithroleukemia cells K-562. The cells were purchased from Biolot (Saint Petersburg, Russia) and were grown in RPMI 1640 medium (Biolot, Saint Petersburg, Russia) supplemented with glutamine and 10% FCS. Before the experiment, the culturing medium was replaced with serum-free RPMI 1640. Serial dilutions of the peptides in RPMI were plated in sterile 96-well microplates, and the target cells were dispensed to the microplates (10^5 cells/well in RPMI 1640). The plates were incubated for 24 h at 37 °C under 5% CO2. Cell-free media and cells incubated without peptides served as controls. Four hours before the incubation ended, MTT in PBS (5 mg/mL) was added to each well. After the incubation was stopped by adding isopropanol/ 0.04 M HCl, the optical density was measured at 540 nm, subtracting the background absorbance at 690 nm. Toxicity was determined by nonlinear regression analysis of the corresponding dose–response curves using the Sigma Plot 11 program to calculate the IC50 values (the concentration of the test substance that reduced the OD540 capacity by 50%).
# [13] = system: set of Gram-negative and Gram-positive bacteria, including drug-resistant clinical isolates; type: cell-based; conditions: 12 strains; median MICs used; MIC > 16 µM taken as 32 µM
# Protocol: To obtain a global assessment of the effect on antimicrobial activity, the geometric mean of the MIC (G-MIC) was calculated, and from this, the overall improvement or impoverishment with respect to arenicin-1. In general, inverting the symmetry or decreasing the charge had detrimental effects.
# The overall activity against a set of tested bacterial strains was determined by way of the commonly used geometric mean of measured MIC values. […] At the same time, the geometric mean can still discriminate antimicrobial agents showing minor variations in activity; in other words, it has a better “resolution” than the median MIC (MIC50). Some mathematical basics for choosing the geometric mean for antimicrobial activity comparison are further discussed in the Supplementary Chapter S3.
# [14] = system: P. aeruginosa c.i.; type: cell-based, Pseudomonas aeruginosa; conditions: 18 h
# From the text: as §1, §2
SMILES,Minimal Inhibitory Concentrations (MIC) [1] [µM],Minimal Inhibitory Concentrations (MIC) [2] [µM],Minimal Inhibitory Concentrations (MIC) [3] [µM],Minimal Inhibitory Concentrations (MIC) [4] [µM],Minimal Inhibitory Concentrations (MIC) [5] [µM],Minimal Inhibitory Concentrations (MIC) [6] [µM],Minimal Inhibitory Concentrations (MIC) [7] [µM],Minimal Inhibitory Concentrations (MIC) [8] [µM],Minimal Inhibitory Concentrations (MIC) [9] [µM],Minimal Inhibitory Concentrations (MIC) [10] [µM],Minimal Inhibitory Concentrations (MIC) [11] [µM],IC50 [12] [µM],G-MIC (geometric mean of all determined MICs) [13] [µM],Minimal Inhibitory Concentrations (MIC) [14] [µM]
"CC(C)C[C@@H]1NC(=O)[C@H](C(C)C)NC(=O)[C@H](CCCNC(=N)N)NC(=O)[C@H](Cc2ccc(O)cc2)NC(=O)[C@H](CCCNC(=N)N)NC(=O)[C@H](CCCNC(=N)N)NC(=O)[C@@H](NC(=O)[C@@H](N)Cc2c[nH]c3ccccc23)CSSC[C@H](NC(=O)[C@@H](N)Cc2c[nH]c3ccccc23)C(=O)N[C@@H](CCCNC(=N)N)C(=O)N[C@@H](CCCNC(=N)N)C(=O)N[C@@H](Cc2ccc(O)cc2)C(=O)N[C@@H](CCCNC(=N)N)C(=O)N[C@@H](C(C)C)C(=O)N[C@@H](CC(C)C)C(=O)N[C@@H](C(C)C)C(=O)N[C@H](C(=O)N[C@@H](CN)C(N)=O)CCCNC(=O)[C@H](C(C)C)NC1=O [ARs-C-B] (HELM PEPTIDE1{W.C.R.R.Y.R.V.L.V.[Orn].[NC[C@H](N[*:1])C(=O)[*:2]].[am]}|PEPTIDE2{W.C.R.R.Y.R.V.L.V}$PEPTIDE1,PEPTIDE2,2:R3-2:R3|PEPTIDE1,PEPTIDE2,10:R3-9:R2$$$V2.0; N-terminus assumed)",8 to 16,4,8,4,1,2,4,1 to 2,4,8,4 to 8,39,4.4,16
"CC(C)C[C@@H]1NC(=O)[C@H](C(C)C)NC(=O)CNC(=O)[C@H](CCCNC(=N)N)NC(=O)[C@H](C(C)C)NC(=O)[C@H](CC(C)C)NC(=O)[C@H](C(C)C)NC(=O)[C@H](CCCNC(=N)N)NC(=O)[C@H](Cc2ccc(O)cc2)NC(=O)[C@H](CCCNC(=N)N)NC(=O)[C@H](CCCNC(=N)N)NC(=O)[C@@H](NC(=O)[C@@H](N)Cc2c[nH]c3ccccc23)CSSC[C@@H](C(=O)N[C@@H](Cc2c[nH]c3ccccc23)C(=O)O)NC(=O)[C@H](CCCNC(=N)N)NC(=O)[C@H](CCCNC(=N)N)NC(=O)[C@H](Cc2ccc(O)cc2)NC(=O)[C@H](CCCNC(=N)N)NC(=O)[C@H](C(C)C)NC1=O [ARs-C] (HELM PEPTIDE1{W.C.R.R.Y.R.V.L.V.R.G.V.L.V.R.Y.R.R.C.W}$PEPTIDE1,PEPTIDE1,2:R3-19:R3$$$V2.0; N-terminus assumed)",2,2,2,8,1,1,2 to 4,1,4,4 to 8,16,11.6,3.2,16
"CC(C)[C@@H]1NC(=O)[C@H](CCCNC(=N)N)NC(=O)[C@H](C(C)C)NC(=O)[C@H](Cc2ccc(O)cc2)NC(=O)[C@H](C)NC(=O)[C@H](Cc2ccc(O)cc2)NC(=O)[C@H](C(C)C)NC(=O)[C@@H](NC(=O)[C@H](Cc2c[nH]c3ccccc23)NC(=O)[C@@H](N)CCCNC(=N)N)CSSC[C@H](NC(=O)[C@H](Cc2c[nH]c3ccccc23)NC(=O)[C@@H](N)CCCNC(=N)N)C(=O)N[C@@H](C(C)C)C(=O)N[C@@H](Cc2ccc(O)cc2)C(=O)N[C@@H](C)C(=O)N[C@@H](Cc2ccc(O)cc2)C(=O)N[C@@H](C(C)C)C(=O)N[C@@H](CCCNC(=N)N)C(=O)N[C@@H](C(C)C)C(=O)N[C@H](C(=O)N[C@@H](CN)C(N)=O)CCCNC1=O [ARs-N-B] (HELM PEPTIDE1{R.W.C.V.Y.A.Y.V.R.V.[Orn].[NC[C@H](N[*:1])C(=O)[*:2]].[am]}|PEPTIDE2{R.W.C.V.Y.A.Y.V.R.V}$PEPTIDE1,PEPTIDE2,3:R3-3:R3|PEPTIDE1,PEPTIDE2,11:R3-10:R2$$$V2.0)",4,8,4,8,2,2 to 4,8,4,8,8,8,35.1,5.9,16
"CC(C)[C@@H]1NC(=O)CNC(=O)[C@H](CCCNC(=N)N)NC(=O)[C@H](C(C)C)NC(=O)[C@H](CCCNC(=N)N)NC(=O)[C@H](C(C)C)NC(=O)[C@H](Cc2ccc(O)cc2)NC(=O)[C@H](C)NC(=O)[C@H](Cc2ccc(O)cc2)NC(=O)[C@H](C(C)C)NC(=O)[C@@H](NC(=O)[C@H](Cc2c[nH]c3ccccc23)NC(=O)[C@H](CCCNC(=N)N)NC(=O)[C@@H](N)CCCNC(=N)N)CSSC[C@@H](C(=O)N[C@@H](Cc2c[nH]c3ccccc23)C(=O)O)NC(=O)[C@H](C(C)C)NC(=O)[C@H](Cc2ccc(O)cc2)NC(=O)[C@H](C)NC(=O)[C@H](Cc2ccc(O)cc2)NC(=O)[C@H](C(C)C)NC(=O)[C@H](CCCNC(=N)N)NC1=O [ARs-N] (HELM PEPTIDE1{R.R.W.C.V.Y.A.Y.V.R.V.R.G.V.R.V.Y.A.Y.V.C.W}$PEPTIDE1,PEPTIDE1,4:R3-21:R3$$$V2.0; N-terminus assumed)",>16,>16,>16,>16,>16,8,>16,16,>16,>16,>16,18,≥26.9,>16

# Source: publication PMC6627698, “Redesigning Arenicin-1, an Antimicrobial Peptide from the Marine Polychaeta Arenicola marina, by Strand Rearrangement or Branching, Substitution of Specific Residues, and Backbone Linearization or Cyclization” (Marine Drugs, 2019)
